Drawing on US5328909A, “Cyclopropenone derivatives” (Mitsubishi Kasei Corporation, priority 1991, dated 1994), this text covers IC50 for 23 compounds.

The structures appear in SMILES notation. Counter-ions that a name gives are not always drawn. Like-named read-outs stand apart in the source and are kept apart here.

The test deals with T1, m-calpain (Rattus norvegicus, UniProt Q07009).
T1 construct: m-calpain was purified from rat brain; from tissue; host or cells: rat brain
T1 sequence (Q07009 20-700 limits assumed): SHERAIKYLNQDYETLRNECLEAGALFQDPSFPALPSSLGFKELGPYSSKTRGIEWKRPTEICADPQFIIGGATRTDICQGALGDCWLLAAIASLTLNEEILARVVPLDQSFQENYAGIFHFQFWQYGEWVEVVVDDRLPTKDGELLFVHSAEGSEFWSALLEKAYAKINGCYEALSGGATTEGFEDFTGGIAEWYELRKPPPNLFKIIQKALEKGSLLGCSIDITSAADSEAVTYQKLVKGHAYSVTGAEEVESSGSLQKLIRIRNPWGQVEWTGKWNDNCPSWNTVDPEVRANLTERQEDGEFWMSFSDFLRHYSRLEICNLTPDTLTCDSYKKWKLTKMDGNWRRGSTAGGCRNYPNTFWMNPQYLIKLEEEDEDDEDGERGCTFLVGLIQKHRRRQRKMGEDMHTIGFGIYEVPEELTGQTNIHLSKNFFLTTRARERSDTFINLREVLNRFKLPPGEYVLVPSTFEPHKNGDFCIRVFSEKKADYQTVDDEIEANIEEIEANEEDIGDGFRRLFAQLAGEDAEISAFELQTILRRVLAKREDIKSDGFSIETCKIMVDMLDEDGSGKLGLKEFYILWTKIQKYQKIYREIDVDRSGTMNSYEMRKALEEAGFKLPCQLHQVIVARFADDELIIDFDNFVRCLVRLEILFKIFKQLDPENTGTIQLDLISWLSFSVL
T1 sequence (Q64537 1-270 partner): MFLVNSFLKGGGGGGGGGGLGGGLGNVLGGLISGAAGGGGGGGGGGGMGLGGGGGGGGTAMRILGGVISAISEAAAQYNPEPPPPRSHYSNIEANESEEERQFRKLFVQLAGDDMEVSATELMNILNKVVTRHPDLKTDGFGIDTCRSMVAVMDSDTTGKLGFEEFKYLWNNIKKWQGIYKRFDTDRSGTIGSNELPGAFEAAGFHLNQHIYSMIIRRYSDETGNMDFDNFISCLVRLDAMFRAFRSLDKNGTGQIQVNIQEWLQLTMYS
Nature of the test: Thiol protease inhibitory activity against m-calpain purified from rat brain. The format is biochemical. How it is done:
Inhibitory activity against papain (P-3125, Sigma) and cathepsin B (C-6286, Sigma) was assayed according to the method described in a literature [Biochemical Journal, 201, 189 (1982)]. Capthesin L was purified from rat kidney according to the method in a literature [Journal of Biochemistry, 100, 35 (1986)], and the inhibitory activity against it was assayed in the same manner as described in the above literature for cathepsin B. Further, m-calpain was purified from rat brain according to a known method [Journal of Biological Chemistry, 254, p.3210 (1984)] and the inhibitory activity against it was assayed by a method described in a literature [Journal of Biological Chemistry, 259, 12489 (1984)]. The results are showing in Tables 3 and 4. It is evident from Tables 3 and 4 that the compounds in the present invention have a potent inhibitory activity against thiol proteases such as papain, cathepsin B, cathepsin L, m-calpain or the like.

[1] abbreviates: Table 4, rat brain enzyme, read-out: Inhibitory activity against m-calpain IC50.

Turning to `CC(C)C[C@H](NC(=O)CCS(=O)(=O)c1ccccc1)C(=O)N[C@@H](C(C)C)[C@@H](O)c1c(-c2ccccc2)c1=O` [57 (No. 170)], the IC50 under setting [1] turned out to be 3100 nM. On to `Cc1ccc(S(=O)(=O)N[C@@H](CC(C)C)C(=O)N[C@@H](C(C)C)[C@@H](O)c2c(-c3ccccc3)c2=O)cc1` [86 (No. 251), 2-[(1S, 2S)-1-hydroxy-3-methyl-2-{(S)-4-methyl-2-(4-trisulfonylamino)valerylamino}butyl]-3-phenylcyclopropenone], for which, under setting [1], the IC50 came out at 750 nM. For the compound `CC(C)C[C@H](NS(=O)(=O)c1ccc(F)cc1)C(=O)N[C@@H](C(C)C)[C@@H](O)c1c(-c2ccccc2)c1=O` [83 (No. 245), 2-[(1S, 2S)-2-{(S)-2-(4-fluorophenylsulfonylamino)-4-methylvalerylamino}-1-hydroxy-3-methylbutyl]-3-phenylcyclopropenone], under setting [1], the IC50 is 3000 nM.

Take `CC(C)C[C@H](NC(=O)[C@H](Cc1ccccc1)NC(=O)OCc1ccccc1)C(=O)N[C@@H](C(C)C)[C@@H](O)c1c(-c2ccccc2)c1=O` [120 (No. 478), 2-[(1S, 2S)-2-{(S)-2-((S)-2-benzyloxycarbonylamino-3-phenylpropionylamino)-4-methylvalerylamino}-1-hydroxy-3-methylbutyl]-3-phenylcyclopropenone]: the IC50 under setting [1] came out at 1200 nM.

Consider `CC(C)COC(=O)N[C@@H](CC(C)C)C(=O)N[C@@H](C(C)C)[C@H](O)c1c(-c2ccccc2)c1=O` [21 (No. 72), 2-[(1R, 2S)-1-hydroxy-2-((S)-2-isobutoxycarbonylamino-4-methylvalerylamino)-3-methylbutyl]-3-phenylcyclopropenone], for which the IC50 under setting [1] came to 3000 nM. Same read-out and setting: to `CC(C)C[C@H](NS(=O)(=O)c1cccc2cccnc12)C(=O)N[C@@H](C(C)C)[C@@H](O)c1c(-c2ccccc2)c1=O` [91 (No. 265), 2-[(1S, 2S)-1-hydroxy-3-methyl-2-{(S)-4-methyl-2-(8-quinolylsulfonylamino)valerylamino}butyl]-3-phenylcyclopropenone] belongs 1900 nM. Turning to `CC(C)C[C@H](NC(=O)c1ccnc(Cl)c1)C(=O)N[C@@H](C(C)C)[C@@H](O)c1c(-c2ccccc2)c1=O` [73 (No. 216), 2-[(1s, 2S)-2-{(S)-2-(2-chloroisonicotinoylamino)-4-methylvalerylamino}-1-hydroxy-3-methylbutyl]-3-phenylcyclopropenone], under setting [1], the IC50 worked out at 1400 nM. On to `CC(C)C[C@H](NC(=O)OCc1ccccc1)C(=O)N[C@@H](Cc1ccccc1)C(O)c1cc1=O` (stereo partly drawn) [9 (No. 26), 2-[(2S)-2-((S)-2-benzyloxycarbonylamino-4-methylvalerylamino)-1-hydroxy-3-phenylpropyl]cyclopropenone], for which the IC50 under setting [1] stood at 5000 nM. The same measure, in the same setting: to `CC(C)C[C@H](NC(=O)COc1ccc(Cl)cc1)C(=O)N[C@@H](C(C)C)[C@@H](O)c1c(-c2ccccc2)c1=O` [51 (No. 154), 2-[(1S, 2S)-2-{(S)-2-(4-chlorophenoxyacetylamino)-4-methylvalerylamino}-1-hydroxy-3-methylbutyl]-3-phenylcyclopropenone] belongs 750 nM. The compound `CC(C)C[C@H](NC(=O)Oc1ccccc1)C(=O)N[C@@H](C(C)C)[C@@H](O)c1c(-c2ccccc2)c1=O` [33 (No. 102), 2-[(1S, 2S)-1-hydroxy-3-methyl-2-((S)-4-methyl-2-phenoxycarbonylamino)valerylamino]-3-phenylcyclopropenone] had an IC50 of 840 nM. For `CC(C)C[C@H](NS(=O)(=O)Cc1ccccc1)C(=O)N[C@@H](C(C)C)[C@H](O)c1c(-c2ccccc2)c1=O` [79 (No. 237), 2-[(1R, 2S)-2-((S)-2-benzylsulfonylamino-4-methylvalerylamino)-1-hydroxy-3-methylbutyl]-3-phenylcyclopropenone], under setting [1], the IC50 came to 1800 nM. Consider `CC(C)C[C@H](NS(=O)(=O)c1ccc2ccccc2c1)C(=O)N[C@@H](C(C)C)[C@@H](O)c1c(-c2ccccc2)c1=O` [89 (No. 260), 2-[(1S, 2S)-1-hydroxy-3-methyl-2-{(S)-4-methyl-2-(2-naphtylsulfonylamino)valerylamino}butyl]-3-phenylcyclopropenone], for which the IC50 under setting [1] worked out at 460 nM. Take `CC(C)C[C@H](NC(=O)c1cccnc1)C(=O)N[C@@H](C(C)C)[C@@H](O)c1c(-c2ccccc2)c1=O` [71 (No. 209), 2-[(1S, 2S)-1-hydroxy-3-methyl-2-((S)-4-methyl-2-nicotinoylaminovalerylamino)butyl]-3-phenylcyclopropenone]: under setting [1], the IC50 came out at 1300 nM.

Regarding `CC(C)C[C@H](NC(=O)CCC1CCCCC1)C(=O)N[C@@H](C(C)C)[C@@H](O)c1c(-c2ccccc2)c1=O` [39 (No. 124), 2-[(1S, 2S)-2-{(S)-2-(3-cyclohexylpropionylamino)-4-methylvalerylamino} -1-hydroxy-3-methylbutyl]-3-phenylcyclopropenone], under setting [1], the IC50 came to 1900 nM. For the compound `CC(C)C[C@H](NS(=O)(=O)c1ccccc1)C(=O)N[C@@H](C(C)C)[C@@H](O)c1c(-c2ccc(F)cc2)c1=O` [111 (No. 317), 2-(4-fluorophenyl)-3-[(1S, 2S)-1-hydroxy-3-methyl-2-((S)-4-methyl-2-phenylsulfonylaminovalerylamino)butyl]cyclopropenone], the IC50 under setting [1] turned out to be 2900 nM. As for `CCCCCCCCCCCC(=O)N[C@@H](CC(C)C)C(=O)N[C@@H](C(C)C)[C@@H](O)c1c(-c2ccccc2)c1=O` [38 (No. 120), 2-[(1S, 2S)-1-hydroxy-2-((S)-2-lauroylamino-4-methylvalerylamino)^- 3-methylbutyl]-3-phenylcyclopropenone], under setting [1], the IC50 turned out to be 4000 nM. For the compound `CC(C)C[C@H](NC(=O)c1cccs1)C(=O)N[C@@H](C(C)C)[C@@H](O)c1c(-c2ccccc2)c1=O` [68 (No. 200), 2-[(1S, 2S)-1-hydroxy-3-methyl-2-{(S)-4-methyl-2-(2-thenoylamino)valerylamino}butyl]-3-phenylcyclopropenone], the concentration for half-maximal inhibition (IC50) under setting [1] stood at 3100 nM.

As to `CC(C)C[C@H](NC(=O)OCC1CCCCC1)C(=O)N[C@@H](C(C)C)[C@@H](O)c1c(-c2ccc(F)cc2)c1=O` [105 (No. 311), 2-[(1S, 2S)-2-((S)-2-cyclohexylmethoxycarbonylamino-4-methylvalerylamino)-1-hydroxy-3-methylbutyl]-3-(4-fluorophenyl)cyclopropenone], the IC50 under setting [1] came to 1500 nM. Same read-out and setting: to `CC(C)C[C@H](NS(=O)(=O)c1ccc(Cl)cc1)C(=O)N[C@@H](C(C)C)[C@@H](O)c1c(-c2ccccc2)c1=O` [85 (No. 248), 2-[(1S, 2S)-2-{(S)-2-(4-chlorophenylsulfonylamino)-4-methylvalerylamino}-1hydroxy-3-methylbutyl]-3-phenylcyclopropenone] belongs 840 nM; to `CCCC[C@H](NC(=O)[C@H](CC(C)C)NC(=O)OCc1ccccc1)C(O)c1c(-c2ccc(F)cc2)c1=O` (stereo partly drawn) [112 (No. 319), 2[(2S)-2-((S)-2-benzyloxycarbonylamino-4-methylvalerylamino)-1-hydroxyhexyl]-3-(4-fluorophenyl)cyclopropenone], 4300 nM.

Turning to `CC(C)C[C@H](NC(=O)OCC1CCCCC1)C(=O)N[C@@H](CC(C)C)C(=O)N[C@@H](C(C)C)[C@@H](O)c1c(-c2ccccc2)c1=O` [118 (No. 467), 2-[(1S, 2S)-2-{(S)-2-((S)-2-cyclohexylmethoxycarbonylamino-4-methylvalerylamino)-4-methylvalerylamino}-1-hydroxy-3-methylbutyl]-3-phenylcyclopropenone], the IC50 under setting [1] worked out at 840 nM. Take `CC(C)C[C@H](NC(=O)COc1ccccc1Cl)C(=O)N[C@@H](C(C)C)[C@@H](O)c1c(-c2ccccc2)c1=O` [50 (No. 152), 2-[(1S, 2S)-2-{(S)-2-(2-chlorophenoxyacetylamino)-4-methylvalerylamino}-1-hydroxy-3-methylbutyl]-3-phenylcyclopropenone]: the IC50 under setting [1] was determined as 1200 nM.

Take `CC(C)C[C@H](NC(=O)OCc1ccccn1)C(=O)N[C@@H](C(C)C)[C@@H](O)c1c(-c2ccccc2)c1=O` [29 (No. 97), 2-[(1s, 2S)-1-hydroxy-3-methyl-2-{(S)-4-methyl-2-(2-pyridylmethoxycarbonylamino)valerylamino}butyl]-3-phenylcyclopropenone hydrochloride]: the IC50 under setting [1] is 1700 nM.
